Data set [1] concerns the target T1, recombinant human LDHB (Homo sapiens, UniProt P07195).
T1 construct: purchased Abcam
The experiment in a line: hLDHB enzymatic activity assay (same fluorimetric protocol). Particulars: mean ± SD of n = 3 replicates. It counts as biochemical. The method, then: (§1) Briefly, the decrease in the coenzyme β-NADH fluorescence (λemission = 460 nm) was measured for 10 min, at different concentration of inhibitors, and its slope was compared with the one obtained when there were not inhibitors added (100% enzymatic activity).
The ability of the synthesized compounds to inhibit the hLDHB enzyme was measured using recombinant human LDHB (95%, specific activity >300 units/mg and concentration of 1.0 mg/mL, Abcam, Cambridge, UK) following the same fluorimetric protocol described in Section 3.4.

Data set [2] has as its target T2, recombinant human LDHA (Homo sapiens, UniProt P00338).
T2 construct: purchased Abcam
Put plainly: hLDHA enzymatic activity assay (kinetic spectrofluorimetric, β-NADH fluorescence decrease). Type of data set: biochemical. Particulars: for IC50: mean ± SD of n = 3 replicates; for Selectivity Rate (IC50 hLDHB/hLDHA): ratio IC50 hLDHB / IC50 hLDHA. The protocol:
as §1
The enzymatic assay was conducted on 96-well microplates and the decrease in the β-NADH fluorescence (λexcitation = 340 nm; λemission = 460 nm) was detected in a TECAN Infinite 200 Pro M Plex fluorescent plate reader (Tecan Instrument, Inc.) at 28 °C. The activity was determined according to our previously described protocol. The final volume in each well was set to 200 µL using 100 mM potassium phosphate buffer, 0.041 units/mL LDHA, 155 µM β-NADH, 1 mM pyruvate (saturated conditions), and DMSO solutions (5%, v/v) of pure compounds at concentrations in the range of 1–600 µM. The addition of pyruvate allowed the beginning of the reaction and fluorescence was registered every 60 s during 10 min. A lineal time interval was selected to calculate the slope at every single concentration. […] The slope obtained at each concentration was compared to the one obtained for the 100% enzymatic activity control to determine the corresponding enzymatic activity. A nonlinear regression analysis in GraphPad Prism version 9.00 for Windows (GraphPad Software, La Jolla, CA, USA) was used for dose response curve, fitting of logarithm of inhibitor concentration vs. normalized enzymatic activity, to calculate IC50 values (Supplementary Material section). All measurements were made in triplicate and data were expressed as the mean ± SD.

Where [3] appears, read: 1 mM pyruvate, 155 µM β-NADH, pH 7.3, 28 °C, read-out: hLDHA IC50.
Where [4] appears, read: supplementary dose response curves, µM only on the axis label, read-out: IC50 (hLDHA inhibition curve).

From publication PMC10298284, “Synthesis and hLDH Inhibitory Activity of Analogues to Natural Products with 2,8-Dioxabicyclo[3.3.1]nonane Scaffold” (International Journal of Molecular Sciences, 2023) come the findings set out here.

Each structure is given as a SMILES string. Values joined by “and” are separate entries in the source; they are usually repeats but may differ in a detail not shown here. Equal entries are not always repeated. Where two headings read alike, the source gives them in different places.

T1 sequence (P07195 whole entry): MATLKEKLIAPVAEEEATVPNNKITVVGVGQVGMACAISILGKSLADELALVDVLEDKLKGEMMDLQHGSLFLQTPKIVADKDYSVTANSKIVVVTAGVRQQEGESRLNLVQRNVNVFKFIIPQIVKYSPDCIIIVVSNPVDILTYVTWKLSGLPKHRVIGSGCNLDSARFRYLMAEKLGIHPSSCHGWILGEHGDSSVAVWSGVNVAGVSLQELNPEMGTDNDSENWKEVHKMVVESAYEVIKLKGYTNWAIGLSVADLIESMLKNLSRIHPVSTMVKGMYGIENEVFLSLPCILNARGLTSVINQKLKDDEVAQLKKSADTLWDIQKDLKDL

Take `COc1ccc(C23CC(c4cc(Cl)ccc4O2)c2c(O)cc(O)cc2O3)cc1OC` (racemic) [(±)-44, 2-(3′,4′-Dimethoxyphenyl)-6-chlorochromane-(4→4″, 2→O-5″)-phloroglucinol]: the melting point was in the range of 257 to 259 °C.

`O=c1oc2ccccc2c2c1C1CC(c3ccc(O)c(O)c3)(Oc3ccc([N+](=O)[O-])cc31)O2` (racemic) [(±)-46, 2-(3′,4′-Dihydroxyphenyl)-6-nitrochromane-(4→3″, 2→O-4″)-4″-hydroxycoumarin]: the melting point was 128 to 130 °C (dec.).

For the compound `COc1ccc(C23CC(c4ccccc4O2)c2c(c4ccccc4oc2=O)O3)cc1OC` (racemic) [(±)-48], the IC50 in data set [1] (read-out: hLDHB IC50) was over 300 µM; in data set [2] (setting [3]) it was 49.6 ± 1.7 µM; in data set [2] (setting [4]), 49.6 ± 1.7 µM. In addition, the “Selectivity Rate (IC50 hLDHB/hLDHA)” value in data set [2] is on record as over 6.0.

Consider `O=c1oc2ccccc2c2c1C1CC(c3ccc(O)cc3)(Oc3ccccc31)O2` (racemic) [(±)-51], for which the concentration for half-maximal inhibition (IC50) in data set [1] (read-out: hLDHB IC50) was determined as 31.5 ± 3 µM; in data set [2] (setting [3]), 34.4 ± 0.8 µM; in data set [2] (setting [4]) it was 34.4 ± 0.8 µM. Moreover, the “Selectivity Rate (IC50 hLDHB/hLDHA)” value in data set [2] amounted to 0.9.

As to `O=c1oc2ccccc2c2c1C1CC(c3ccc(O)cc3)(Oc3ccc([N+](=O)[O-])cc31)O2` (racemic) [(±)-52, 2-(4′-Hydroxyphenyl)-6-nitrochromane-(4→3″, 2→O-4″)-4″-hydroxycoumarin], the melting point was 275 to 278 °C. For the same compound, the IC50 in data set [2] (setting [3]) was found to be 36.9 ± 1.2 µM. Also, the “Selectivity Rate (IC50 hLDHB/hLDHA)” value in data set [2] is listed as 1.8. In addition, in data set [2] (setting [4]), the IC50 was found to be 36.9 ± 1.2 µM.

With `O=c1oc2ccccc2c2c1C1CC(c3ccc(O)cc3)(Oc3ccc(Cl)cc31)O2` (racemic) [(±)-53, 2-(4′-Hydroxyphenyl)-6-chlorochromane-(4→3″, 2→O-4″)-4″-hydroxycoumarin], the melting point is 250 to 252 °C (dec.).

Turning to `O=C1C2=C(C(=O)c3ccccc31)C1CC(c3ccc(O)c(O)c3)(O2)Oc2ccccc21` (racemic) [(±)-54, 2-(3′,4′-Dihydroxyphenyl)-chromane-(4→3″, 2→O-2″)-2″-hydroxy-1″,4″-naphthoquinone], the melting point is 190 to 192 °C (dec.).

Turning to `COc1ccc(C23CC(C4=C(O2)C(=O)c2ccccc2C4=O)c2ccccc2O3)cc1OC` (racemic) [(±)-57], the IC50 was over 300 µM in data set [1] (read-out: hLDHB IC50), 42.2 ± 2.4 µM in data set [2] (setting [3]) and 42.2 ± 2.4 µM in data set [2] (setting [4]). For the same compound, the “Selectivity Rate (IC50 hLDHB/hLDHA)” value in data set [2] is listed as over 7.1.

For the compound `COc1ccc(C23CC(C4=C(O2)C(=O)c2ccccc2C4=O)c2cc([N+](=O)[O-])ccc2O3)cc1OC` (racemic) [(±)-58, 2-(3′.4′-Dimethoxyphenyl)-6-nitrochromane-(4→3″, 2→O-2″)-2″-hydroxy-1″,4″-naphthoquinone], the melting point lay within 148 to 150 °C.

Regarding `COc1ccc(C23CC(C4=C(O2)C(=O)c2ccccc2C4=O)c2cc(Cl)ccc2O3)cc1OC` (racemic) [(±)-59, 2-(3′,4′-Dimethoxyphenyl)-6-chlorochromane-(4→3″, 2→O-2″)-2″-hydroxy-1″,4″-naphthoquinone], the melting point fell in the range of 124 to 127 °C.

For the compound `O=C1C2=C(C(=O)c3ccccc31)C1CC(c3ccc(O)cc3)(O2)Oc2ccc([N+](=O)[O-])cc21` (racemic) [(±)-60, 2-(4′-Hydroxyphenyl)-6-nitrochromane-(4→3″, 2→O-2″)-2″-hydroxy-1″,4″-naphthoquinone], the melting point was 270 to 273 °C (dec.).

Consider `O=C1C2=C(C(=O)c3ccccc31)C1CC(c3ccc(O)cc3)(O2)Oc2ccc(Cl)cc21` (racemic) [(±)-61, 2-(4′-Hydroxyphenyl)-6-chlorochromane-(4→3″, 2→O-2″)-2″-hydroxy-1″,4″-naphthoquinone], for which the melting point fell in the range of 249 to 251 °C.

As for `COc1ccc([C@]23C[C@H](C4=C(C[C@@H](c5ccccc5)OC4=O)O2)c2ccccc2O3)cc1OC` (racemic) [(±)-62a, 2-(3′,4′-Dimethoxyphenyl)-chromane-(4→3″, 2→O-4″)-4″-hydroxy-6″-phenyl-5″,6″-dihydro-2H-pyran-2″-one], the IC50 in data set [1] (supplementary dose response curves, µM only on the axis label, read-out: IC50 (hLDHB inhibition curve)) is 150 ± 3.9 µM; in data set [2] (setting [3]), < 10 µM and 3.6 µM; in data set [2] (setting [4]) it was 3.6 ± 0.3 µM. The “Selectivity Rate (IC50 hLDHB/hLDHA)” value in data set [2] is on record as 41.8.

Take `COc1ccc([C@]23C[C@H](C4=C(C[C@H](c5ccccc5)OC4=O)O2)c2ccccc2O3)cc1OC` (racemic) [(±)-62b, 2-(3′,4′-Dimethoxyphenyl)-chromane-(4→3″, 2→O-4″)-4″-hydroxy-6″-phenyl-5″,6″-dihydro-2H-pyran-2″-one]: the IC50 in data set [1] (read-out: hLDHB IC50) is over 300 µM; in data set [2] (setting [3]), 39.4 ± 1.2 µM; in data set [2] (setting [4]), 39.4 ± 1.2 µM. The “Selectivity Rate (IC50 hLDHB/hLDHA)” value in data set [2] is over 7.6.

Take `COc1ccc(C23CC(C4=C(CC(c5ccc(Cl)cc5)OC4=O)O2)c2ccccc2O3)cc1OC` (racemic) [(±)-63a, 2-(3′,4′-Dimethoxyphenyl)-chromane-(4→3″, 2→O-4″)-6″-(4‴-chlorophenyl)-4″-hydroxy-5″,6″-dihydro-2H-pyran-2″-one]: the melting point lay in the range of 110 to 112 °C.

With `COc1ccc(C2CC3=C(C(=O)O2)C2CC(c4ccc(OC)c(OC)c4)(O3)Oc3ccccc32)cc1` (racemic) [(±)-64b, 2-(3′,4′-Dimethoxyphenyl)-chromane-(4→3″, 2→O-4″)-4″-hydroxy-6″-(4‴-methoxyphenyl)-5″,6″-dihydro-2H-pyran-2″-one], the IC50 was over 300 µM in data set [1] (read-out: hLDHB IC50), 96.7 ± 9 µM in data set [2] (setting [3]) and 96.7 ± 9 µM in data set [2] (setting [4]). Further, the “Selectivity Rate (IC50 hLDHB/hLDHA)” value in data set [2] is over 3.1.

Regarding `COc1ccc(C23CC(C4=C(CC(c5ccccc5)OC4=O)O2)c2cc([N+](=O)[O-])ccc2O3)cc1OC` (racemic) [(±)-65b, 2-(3′,4′-Dimethoxyphenyl)-6-nitrochromane-(4→3″, 2→O-4″)-4″-hydroxy-6″-phenyl-5″,6″-dihydro-2H-pyran-2″-one], the IC50 in data set [1] (read-out: hLDHB IC50) was over 300 µM; in data set [2] (setting [3]), < 10 µM and 8.5 µM; in data set [2] (setting [4]) it was 8.5 ± 0.4 µM. Moreover, the “Selectivity Rate (IC50 hLDHB/hLDHA)” value in data set [2] is on record as over 35.3.

On to `COc1ccc(C23CC(C4=C(CC(c5ccc(Cl)cc5)OC4=O)O2)c2cc([N+](=O)[O-])ccc2O3)cc1OC` (racemic) [(±)-66b, 2-(3′,4′-Dimethoxyphenyl)-6-nitrochromane-(4→3″, 2→O-4″)-6″-(4‴-chlorophenyl)-4″-hydroxy-5″,6″-dihydro-2H-pyran-2″-one], for which the IC50 was 20.4 ± 0.7 µM in data set [1] (read-out: hLDHB IC50); < 10 µM and 6 µM in data set [2] (setting [3]); 6 ± 0.1 µM in data set [2] (setting [4]). The “Selectivity Rate (IC50 hLDHB/hLDHA)” value in data set [2] was 3.4.

Turning to `COc1ccc(C2CC3=C(C(=O)O2)C2CC(c4ccc(OC)c(OC)c4)(O3)Oc3ccc([N+](=O)[O-])cc32)cc1` (racemic) [(±)-67b, 2-(3′,4′-Dimethoxyphenyl)-6-nitrochromane-(4→3″, 2→O-4″)-4″-hydroxy-6″-(4‴-methoxyphenyl)-5″,6″-dihydro-2H-pyran-2″-one], the half-inhibitory concentration (IC50) in data set [1] (read-out: hLDHB IC50) was found to be 53.7 ± 0.9 µM; in data set [2] (setting [3]), 14.6 ± 0.3 µM; in data set [2] (setting [4]), 14.6 ± 0.3 µM. Also, in data set [2], the “Selectivity Rate (IC50 hLDHB/hLDHA)” value turned out to be 3.7.

The compound `COc1ccc(C23CC(C4=C(CC(c5ccccc5)OC4=O)O2)c2cc(Cl)ccc2O3)cc1OC` (racemic) [(±)-68a, 2-(3′,4′-Dimethoxyphenyl)-6-chlorochromane-(4→3″, 2→O-4″)-4″-hydroxy-6″-phenyl-5″,6″-dihydro-2H-pyran-2″-one] had a melting point of 106 to 108 °C.

With `COc1ccc(C23CC(C4=C(CC(c5ccc(Cl)cc5)OC4=O)O2)c2cc(Cl)ccc2O3)cc1OC` (racemic) [(±)-69b, 2-(3′,4′-Dimethoxyphenyl)-6-chlorochromane-(4→3″, 2→O-4″)-6″-(4‴-chlorophenyl)-4″-hydroxy-5″,6″-dihydro-2H-pyran-2″-one], the IC50 in data set [1] (read-out: hLDHB IC50) amounted to 77 ± 9.7 µM; in data set [2] (setting [3]) it was 14.2 ± 0.8 µM; in data set [2] (setting [4]), 14.2 ± 0.8 µM. Further, the “Selectivity Rate (IC50 hLDHB/hLDHA)” value in data set [2] was determined as 5.4.

Turning to `COc1ccc(C2CC3=C(C(=O)O2)C2CC(c4ccc(OC)c(OC)c4)(O3)Oc3ccc(Cl)cc32)cc1` (racemic) [(±)-70b, 2-(3′.4′-Dimethoxyphenyl)-6-chlorochromane-(4→3″, 2→O-4″)-4″-hydroxy-6″-(4‴-methoxyphenyl)-5″,6″-dihydro-2H-pyran-2″-one], the IC50 in data set [1] (read-out: hLDHB IC50) stood at 292 ± 4.1 µM; in data set [2] (setting [3]) it was 20.2 ± 0.7 µM; in data set [2] (setting [4]) it was 20.2 ± 0.7 µM. For the same compound, the “Selectivity Rate (IC50 hLDHB/hLDHA)” value in data set [2] was 14.5; in data set [2] (listed as 70b), over 10.

By melting point is commonly meant the temperature of the solid-liquid transition. The term IC50 denotes the concentration that inhibits the measured activity by half.
